Measurements: patent US7993627B2, “Methods for determining whether a compound alters the amount of at least one αβ (X-41) peptide and the amount of either total αβ or at least one αβ (X-40) peptide produced by a non-human mammal” (Elan Pharmaceuticals, Inc., priority 1996, dated 2011)
Where a SMILES comes first, the peptide text is derived from it. The star is where a group is joined. Cbz = O=C(OCc1ccccc1)*

Experiments:
K695sw cells = assay: Pulse-chase labeling and immunoprecipitation of chase media and cell lysates (APP processing); format: cell-based, human
Experimental: We first set out to reproduce the published results of Higaki et al. (1995) Neuron, 14:651-659 on the action of the compound MDL 28170 on APP processing, using human kidney 293 cells stably expressing APP695 with the Swedish FAD mutation (K695sw cells). Our experiments were done using a pulse-chase paradigm: K695sw cells were labeled for 2 hours with 35S-methionine and then chased for 2 hours in the presence of 200 μM MDL 28170. Aliquots of the chase media from treated and untreated cells were subjected to SDS-PAGE.
To address this question, we performed pulse-chase experiments on K695sw cells using different doses of MDL 28170, followed by sequential immunoprecipitation of the same media first with 21F12, a monoclonal antibody raised against amino acids 33-42 of Aβ (described above) which specifically precipitates Aβ peptides ending at position 42, and then with antibody 1282 which precipitates all forms of Aβ and p3 (Haass et al., (1992b) Nature 359:322-325) (FIG. 4A). […] Using MDL 28170 at 200 μM, the experiment was repeated four times and the results were quantitated by phosphorimaging (FIG. 4B).
All transfected cell lines described here carry derivatives of pCMV695, a plasmid carrying APP695 under control of the CMV promoter (Selkoe, (1988) Proc. Natl. Acad. Sci. 85:7341-7345) K695sw are human embryonic kidney 293 cells stably transfected with a construct carrying the AD-linked double (“Swedish”) mutation K595N/M596L (Citron et al. (1992) Nature, 360:672-674); K695717I are 293 cells stably transfected with APP695 carrying the mutation V717I (valine to isoleucine at position 717 in the APP770 numbering system). CHO695 are Chinese hamster ovary cells (CHO) stably transfected with pCMV695 (Oltersdorf (1990) J. Biol. Chem. 265:4432-4437) SKN695 are SK-N-SH human neuroblastoma cells stably transfected with pCMV695.
To analyze the effect of MDL 28170 on the processing of APP, cells were grown to confluence in two 10 cm dishes, pulse-labeled with 600 μCi of [^35S]-methionine in 4 ml of serum-free medium for 2 hours and then chased for 2 hours with 4 ml medium containing 10% fetal bovine serum and the indicated final concentration of MDL 28170 (initially dissolved at 200 mM. in DMSO). Control dishes were treated with DMSO alone.
Conditioned media and cell lysates were analyzed by immunoprecipitation, as described (Haass, et al. (1992) Nature 359:322-325). Polyclonal antibody R1736 to residues 595-611 of APP695 was used to precipitate α-APPs (Haass, (1994) J. Biol. Chem. 269:17741-17748). This antibody recognizes an epitope that is specific for the free COOH-terminus of α-cleaved APPs. Polyclonal antibody R1282 was generated to synthetic Aβ1-40 (Haass, et al. (1992) Nature 359:322-325). […]

total Aβ and total p3 = conditions: literature; cited from earlier work

SMILES	β-secretase activity (β-cleaved APPs, antibody 192sw immunoprecipitation) (K695sw cells; 200 μM during 2 h chase)	Aβ(42) (antibody 21F12) (K695sw cells; 1 μM PDBu, 2 h pulse 2 h chase)	p3(42) (antibody 21F12) (K695sw cells; 1 μM PDBu, 2 h pulse 2 h chase)	total Aβ (subsequent R1282) (K695sw cells; 1 μM PDBu, 2 h pulse 2 h chase)	total Aβ (total Aβ and total p3)	total p3 (total Aβ and total p3)
CC(C)[C@H](NC(=O)OCc1ccccc1)C(=O)N[C@H](C=O)Cc1ccccc1 [MDL 28170] (Cbz-Val-Phe-aldehyde)	does not significantly inhibit	–	–	–	–	–
CCCC(=O)O[C@@H]1[C@@H](C)[C@@]2(O)[C@@H](C=C(CO)C[C@]3(O)C(=O)C(C)=C[C@@H]23)[C@@H]2C(C)(C)[C@]12OC(=O)CCC [PDBu]	–	decreases	increase	decreases	decrease	increase
